From patent publication US20200368271A1, “METHOD AND APPARATUS FOR ADMINISTERING GASES INCLUDING NITRIC OXIDE” (priority 2015, published 2020)

Key:
rats exposed to high O2 = conditions: cited from earlier work
neonatal piglets = conditions: short-term exposure, Ekekezie 2000; cited from earlier work
[1] = tested on: mice with intratracheal administration of LPS; experiment: LPS-induced lung injury in mice (intratracheal LPS); type: in vivo; conditions: for lung injury after intratracheal LPS: 2% H2 and/or 20 ppm NO for 3 hours starting at 5 minutes or 3 hours after LPS administration; for pulmonary inflammation and cell apoptosis: H2 and/or NO treatment
Source text: Applicants have discovered that NO's effect as an antioxidant may be enhanced by eliminating highly reactive by-products of NO inhalation such as peroxynitrite, by adding H2 to inhaled NO gas.

HIF = conditions: cited from earlier work
[2] = tested on: rat brain ischemia-reperfusion (I/R); conditions: acute rat model, inhaled; Ohsawa 2007; cited from earlier work
chrondrocytes = conditions: Yokota 2015; cited from earlier work

Structure (SMILES)	lung collagen accumulation (neonatal piglets)	lung injury after intratracheal LPS [1]	pulmonary inflammation and cell apoptosis [1]	also measured
COC(=O)[C@@H](N)CCCN=C(N)N[N+](=O)[O-] [Nω-nitro-1-arginine methyl ester]	–	–	–	survival on exposure to >95% O2 with endogenous NO production blocked (rats exposed to high O2; neonatal rats, compared with control rats): significantly fewer survived
O=O [O2, oxygen]	increases lung collagen accumulation	–	–	–
[N]=O [NO, nitric oxide]	increases lung collagen accumulation	significantly improved	down-regulated	survival in high O2 exposure (rats exposed to high O2; rats, inhaled NO): increase survival; effect on HIF at high doses (HIF; high doses and after 30 minutes): inhibitory; effect on HIF at low dose (HIF; low dose, for 30 minutes, during hypoxia): stimulates
[HH] [H2, hydrogen]	–	significantly improved	down-regulated	brain injury associated with focal ischemia-reperfusion [2]: markedly suppressed; effect on cells under oxidant injury (chrondrocytes): cytoprotective effects
